For series [1], the target named is T1, Tyrosine-protein kinase ABL1 (Homo sapiens, UniProt P00519, T315I). The series is described as follows: Safety index, ratio of compound IC50 to ponatinib IC50 for inhibition of human ABL T315I mutant using EAIYAAPFAKKK substrate and [gamma-33P]-ATP incubated for 40 mins by scintillation counting method.
For series [2], the system named is Protein cereblon/Tyrosine-protein kinase ABL1/Breakpoint cluster region protein (Homo sapiens), P00519+P11274+Q96SW2 [E255K]. In words: Protac activity at Cereblon/BCR/ABL E255K mutant (unknown origin) expressed in human HeLa cells assessed as reduction in BCR-ABL E255K mutant protein levels at 10 to 10000 nM incubated for 32 hrs by Western blot analysis. In kind it is cell-based. (In western blotting, separated proteins are transferred to a membrane and probed.)

Series [3] addresses Vascular endothelial growth factor receptor 2 (Homo sapiens, UniProt P35968). In words: Inhibition of human VEGFR2 using MBP substrate and [gamma-33P]-ATP incubated for 40 mins by scintillation counting method.
Series [4] concerns Protein cereblon/Tyrosine-protein kinase ABL1/Breakpoint cluster region protein (Homo sapiens), P00519+P11274+Q96SW2 [H396R]. In words: Protac activity at Cereblon/BCR/ABL H396R mutant (unknown origin) expressed in human HeLa cells assessed as reduction in BCR-ABL H396R mutant protein levels at 10 to 10000 nM incubated for 32 hrs by Western blot analysis. Type of series: cell-based.

For series [5], the target named is T2, Protein cereblon/Tyrosine-protein kinase ABL1/Breakpoint cluster region protein (Homo sapiens, UniProt P00519+P11274+Q96SW2). The series is described as follows: Protac activity at Cereblon/BCR/ABL in human K562 cells assessed as induction of BCR-ABL degradation incubated for 32 to 48 hrs by Western blot analysis. In kind it is cell-based.
Series [6] deals with Protein cereblon/Tyrosine-protein kinase ABL1/Breakpoint cluster region protein (Homo sapiens), P00519+P11274+Q96SW2 [T315I]. In words: Protac activity at Cereblon/BCR/ABL T315I mutant (unknown origin) expressed in mouse BaF3 cells assessed as reduction in BCR-ABL T315I mutant protein levels at 3 to 30000 nM incubated for 32 hrs by Western blot analysis. Type of series: cell-based.

Series [7] addresses T1, Tyrosine-protein kinase ABL1. In words: Inhibition of human ABL T315I mutant using EAIYAAPFAKKK substrate and [gamma-33P]-ATP incubated for 40 mins by scintillation counting method.
For the next series, the system named is H9c2. The series is described as follows: Antiproliferative activity against rat H9C2 cells incubated for 3 days by CCK8 assay. Type of series: cell-based. As to conditions: H9c2, 72 h.
Series [8] has as its target T3, Proto-oncogene tyrosine-protein kinase Src (Homo sapiens, UniProt P12931). In words: Safety index, ratio of compound IC50 to ponatinib IC50 for inhibition of human c-SRC using poly(Glu,Tyr)4:1 substrate and [gamma-33P]-ATP incubated for 40 mins by scintillation counting method.
A further series deals with K562. The series is described as follows: Antiproliferative activity against human K562 cells incubated for 3 days by CCK8 assay. Type of series: functional, cell-based. As to conditions: K562, 72 h.
For series [9], the target named is Protein cereblon/Receptor-type tyrosine-protein kinase FLT3 (Homo sapiens, UniProt P36888+Q96SW2). The series is described as follows: Protac activity at Cereblon/Flt3 in human K562 cells assessed as reduction in Flt3 protein levels at 3 to 30000 nM incubated for 48 hrs by Western blot analysis. In kind it is ADME, cell-based.
Protein cereblon/Receptor-type tyrosine-protein kinase FLT3, sequence (P36888 whole entry): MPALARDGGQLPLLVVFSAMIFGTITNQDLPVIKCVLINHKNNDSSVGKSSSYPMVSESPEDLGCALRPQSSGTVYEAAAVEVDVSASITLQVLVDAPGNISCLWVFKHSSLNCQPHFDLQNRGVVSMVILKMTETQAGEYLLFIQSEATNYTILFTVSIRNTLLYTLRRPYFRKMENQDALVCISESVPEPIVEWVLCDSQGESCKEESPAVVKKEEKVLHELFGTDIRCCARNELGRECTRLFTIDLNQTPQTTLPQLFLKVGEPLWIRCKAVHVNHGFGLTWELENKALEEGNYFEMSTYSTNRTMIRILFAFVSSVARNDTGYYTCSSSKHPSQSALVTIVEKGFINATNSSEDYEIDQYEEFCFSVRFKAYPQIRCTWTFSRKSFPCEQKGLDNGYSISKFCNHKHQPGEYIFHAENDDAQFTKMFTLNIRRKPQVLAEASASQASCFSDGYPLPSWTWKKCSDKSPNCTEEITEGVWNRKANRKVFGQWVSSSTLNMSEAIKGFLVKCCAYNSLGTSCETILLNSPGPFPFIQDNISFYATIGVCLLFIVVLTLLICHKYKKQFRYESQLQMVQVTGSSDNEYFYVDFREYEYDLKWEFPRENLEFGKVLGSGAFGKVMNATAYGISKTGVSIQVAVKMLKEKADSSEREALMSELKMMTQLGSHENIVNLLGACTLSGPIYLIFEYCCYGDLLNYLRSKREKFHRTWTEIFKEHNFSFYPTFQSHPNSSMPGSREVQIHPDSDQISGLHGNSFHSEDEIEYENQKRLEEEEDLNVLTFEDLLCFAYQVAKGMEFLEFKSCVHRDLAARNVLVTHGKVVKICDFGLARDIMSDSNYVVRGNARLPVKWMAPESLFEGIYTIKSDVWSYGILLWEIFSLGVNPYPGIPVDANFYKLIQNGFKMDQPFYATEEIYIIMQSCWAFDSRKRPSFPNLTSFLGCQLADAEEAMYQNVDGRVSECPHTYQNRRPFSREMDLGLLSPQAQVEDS
Protein cereblon/Receptor-type tyrosine-protein kinase FLT3, sequence (Q96SW2 whole entry): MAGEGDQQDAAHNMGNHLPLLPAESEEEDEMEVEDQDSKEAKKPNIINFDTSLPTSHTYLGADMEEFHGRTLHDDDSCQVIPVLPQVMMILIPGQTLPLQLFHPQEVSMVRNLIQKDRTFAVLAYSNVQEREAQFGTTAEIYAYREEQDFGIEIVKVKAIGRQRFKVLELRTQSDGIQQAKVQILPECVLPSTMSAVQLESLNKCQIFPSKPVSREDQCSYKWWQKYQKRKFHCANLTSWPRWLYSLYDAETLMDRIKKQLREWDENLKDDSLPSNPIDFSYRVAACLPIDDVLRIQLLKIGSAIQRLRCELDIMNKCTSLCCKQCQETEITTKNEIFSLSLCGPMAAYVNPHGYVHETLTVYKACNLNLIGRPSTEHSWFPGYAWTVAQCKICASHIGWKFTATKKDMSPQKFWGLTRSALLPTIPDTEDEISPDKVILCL
In series [10] the test system is HUVEC. In words: Toxicity in HUVEC assessed as inhibition of tube formation at 1 uM incubated for 20 hrs by optical microscopy based matrigel-based assay. In kind it is cell-based. As to conditions: human.
The target in series [11] is T2, Protein cereblon/Tyrosine-protein kinase ABL1/Breakpoint cluster region protein. The series is described as follows: Protac activity at Cereblon/BCR/ABL in human K562 cells assessed as synergistic antiproliferation effect by measuring combination index at 0.25 to 4 times alone antiproliferative EC50 ibn presence of hedgehog pathway inhibitor […] by Chou-Talalay method. Type of series: cell-based.

Series [12] addresses Protein cereblon/Tyrosine-protein kinase ABL1/Breakpoint cluster region protein (Homo sapiens, UniProt P00519+P11274+Q96SW2, T315I). Type of series: cell-based, BaF3.
Series [13] has as its system Protein cereblon/Tyrosine-protein kinase ABL1/Breakpoint cluster region protein (Homo sapiens), P00519+P11274+Q96SW2 [V468F]. In words: Protac activity at Cereblon/BCR/ABL V468F mutant (unknown origin) expressed in human HeLa cells assessed as reduction in BCR-ABL V468F mutant protein levels at 10 to 10000 nM incubated for 32 hrs by Western blot analysis. Type of series: cell-based.

Series [14] has as its system HUVEC. In words: Antiproliferative activity against human HUVEC incubated for 3 days by CCK8 assay. As to conditions: 72 h. In kind it is cell-based.
The target in series [15] is Protein cereblon/Mast/stem cell growth factor receptor Kit (Homo sapiens, UniProt P10721+Q96SW2). The series is described as follows: Protac activity at Cereblon/C-Kit in human K562 cells assessed as reduction in C-Kit protein levels at 3 to 30000 nM incubated for 48 hrs by Western blot analysis. In kind it is ADME, cell-based. As to conditions: k562, 48 h, 30 µM.
Series [16] concerns the target Protein cereblon/Platelet-derived growth factor receptor alpha (Homo sapiens, UniProt P16234+Q96SW2). In words: Protac activity at Cereblon/PDGFRalpha in human K562 cells assessed as reduction in PDGFRalpha protein levels at 3 to 30000 nM incubated for 48 hrs by Western blot analysis. Type of series: ADME, cell-based. As to conditions: k562, 48 h, 30 µM.
Series [17] addresses T3, Proto-oncogene tyrosine-protein kinase Src. In words: Inhibition of human c-SRC using poly(Glu,Tyr)4:1 substrate and [gamma-33P]-ATP incubated for 40 mins by scintillation counting method.
For series [18], the target named is Tyrosine-protein kinase Lyn (Homo sapiens, UniProt P07948). The series is described as follows: Inhibition of human LYN using poly(Glu,Tyr)4:1 substrate and [gamma-33P]-ATP incubated for 40 mins by scintillation counting method.
Tyrosine-protein kinase Lyn, sequence (P07948 whole entry): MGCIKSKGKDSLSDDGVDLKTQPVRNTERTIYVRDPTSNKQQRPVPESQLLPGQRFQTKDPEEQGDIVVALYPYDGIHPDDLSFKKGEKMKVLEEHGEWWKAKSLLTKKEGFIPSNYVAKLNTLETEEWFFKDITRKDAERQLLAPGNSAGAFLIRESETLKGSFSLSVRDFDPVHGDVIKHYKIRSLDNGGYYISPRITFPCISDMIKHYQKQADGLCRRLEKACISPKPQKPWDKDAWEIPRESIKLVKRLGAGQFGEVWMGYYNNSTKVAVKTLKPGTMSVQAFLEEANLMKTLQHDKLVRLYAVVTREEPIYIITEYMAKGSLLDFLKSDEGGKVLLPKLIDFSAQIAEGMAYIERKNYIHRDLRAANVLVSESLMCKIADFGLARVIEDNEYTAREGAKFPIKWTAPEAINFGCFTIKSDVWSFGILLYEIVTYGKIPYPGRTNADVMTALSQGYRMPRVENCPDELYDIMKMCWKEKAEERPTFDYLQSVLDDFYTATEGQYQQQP
The subject of a further series is BaF3. The series is described as follows: Antiproliferative activity against wild type mouse BA/F3 cells incubated for 3 days by CCK8 assay. Type of series: cell-based. The following applies: BaF3, 72 h. A general note: Tetrazolium assays rely on reduction of a dye to a coloured formazan, in cell work by metabolically active cells.
The target in series [19] is Protein cereblon/Proto-oncogene tyrosine-protein kinase Src (Homo sapiens, UniProt P12931+Q96SW2). The series is described as follows: Protac activity at Cereblon/Src in human K562 cells assessed as reduction in Src protein levels at 3 to 30000 nM incubated for 48 hrs by Western blot analysis. Type of series: ADME, cell-based. The following applies: k562, 48 h, 30 µM.

Calls of active or inactive are those of the source. The rule behind the calls is not given here. Where only a bound is given, the exact number is not on record here.

Usually IC50 stands for the midpoint of a concentration-inhibition curve. In general, DC50 refers to the concentration at which degradation of the target reaches its halfway point. What is called EC50 is the concentration that produces a half-maximal response. Higher therefore signals a need for much substance.

T3 sequence (P12931 2-536 limits assumed): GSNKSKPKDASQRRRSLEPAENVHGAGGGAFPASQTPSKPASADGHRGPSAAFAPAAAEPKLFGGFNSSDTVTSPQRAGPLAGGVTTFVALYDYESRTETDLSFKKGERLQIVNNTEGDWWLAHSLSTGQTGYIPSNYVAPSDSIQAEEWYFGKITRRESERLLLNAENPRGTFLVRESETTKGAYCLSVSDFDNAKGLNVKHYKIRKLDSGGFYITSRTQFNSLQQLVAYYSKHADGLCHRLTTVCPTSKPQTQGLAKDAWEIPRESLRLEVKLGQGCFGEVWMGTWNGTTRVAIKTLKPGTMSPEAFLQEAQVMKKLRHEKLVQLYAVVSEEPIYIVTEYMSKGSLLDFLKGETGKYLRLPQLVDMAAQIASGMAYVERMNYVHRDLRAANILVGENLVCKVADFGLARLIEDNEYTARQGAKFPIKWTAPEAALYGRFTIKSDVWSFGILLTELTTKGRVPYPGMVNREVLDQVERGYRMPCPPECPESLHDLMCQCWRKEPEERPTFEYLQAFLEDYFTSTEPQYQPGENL
Vascular endothelial growth factor receptor 2, sequence (P35968 whole entry): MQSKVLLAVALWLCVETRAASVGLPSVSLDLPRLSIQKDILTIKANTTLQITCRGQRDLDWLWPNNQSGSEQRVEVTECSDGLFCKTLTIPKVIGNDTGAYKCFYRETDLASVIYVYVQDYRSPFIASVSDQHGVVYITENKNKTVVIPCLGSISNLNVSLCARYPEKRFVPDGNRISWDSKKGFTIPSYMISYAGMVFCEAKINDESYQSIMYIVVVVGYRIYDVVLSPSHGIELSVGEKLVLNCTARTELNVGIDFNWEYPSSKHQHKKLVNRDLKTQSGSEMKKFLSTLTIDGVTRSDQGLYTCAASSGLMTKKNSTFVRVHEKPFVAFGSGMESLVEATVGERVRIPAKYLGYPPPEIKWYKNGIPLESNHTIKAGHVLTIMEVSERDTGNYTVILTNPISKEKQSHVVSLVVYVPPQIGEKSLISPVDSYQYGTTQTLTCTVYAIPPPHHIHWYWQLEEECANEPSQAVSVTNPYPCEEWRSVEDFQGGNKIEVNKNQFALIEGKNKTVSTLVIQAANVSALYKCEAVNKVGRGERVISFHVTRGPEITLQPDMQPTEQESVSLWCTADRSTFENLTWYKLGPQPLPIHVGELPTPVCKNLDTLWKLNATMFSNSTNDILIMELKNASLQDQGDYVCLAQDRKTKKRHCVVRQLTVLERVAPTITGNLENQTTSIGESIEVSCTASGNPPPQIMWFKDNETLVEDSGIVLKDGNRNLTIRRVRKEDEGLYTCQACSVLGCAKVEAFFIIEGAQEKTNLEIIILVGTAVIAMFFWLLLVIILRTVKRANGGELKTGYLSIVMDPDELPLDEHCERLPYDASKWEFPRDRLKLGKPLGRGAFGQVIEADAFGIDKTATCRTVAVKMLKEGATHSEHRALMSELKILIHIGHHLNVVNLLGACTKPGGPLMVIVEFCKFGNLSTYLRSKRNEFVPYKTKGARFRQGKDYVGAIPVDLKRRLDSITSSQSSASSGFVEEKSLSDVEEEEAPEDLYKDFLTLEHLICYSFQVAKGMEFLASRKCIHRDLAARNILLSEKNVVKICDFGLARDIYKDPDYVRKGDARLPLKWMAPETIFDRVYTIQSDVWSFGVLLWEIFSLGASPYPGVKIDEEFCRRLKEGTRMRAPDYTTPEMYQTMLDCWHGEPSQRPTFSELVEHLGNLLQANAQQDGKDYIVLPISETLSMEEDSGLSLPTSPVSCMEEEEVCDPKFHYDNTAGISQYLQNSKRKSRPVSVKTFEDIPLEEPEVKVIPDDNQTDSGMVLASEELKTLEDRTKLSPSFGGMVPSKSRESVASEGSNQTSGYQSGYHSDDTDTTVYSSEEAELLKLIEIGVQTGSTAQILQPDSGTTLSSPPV
Protein cereblon/Platelet-derived growth factor receptor alpha, sequence (P16234 whole entry): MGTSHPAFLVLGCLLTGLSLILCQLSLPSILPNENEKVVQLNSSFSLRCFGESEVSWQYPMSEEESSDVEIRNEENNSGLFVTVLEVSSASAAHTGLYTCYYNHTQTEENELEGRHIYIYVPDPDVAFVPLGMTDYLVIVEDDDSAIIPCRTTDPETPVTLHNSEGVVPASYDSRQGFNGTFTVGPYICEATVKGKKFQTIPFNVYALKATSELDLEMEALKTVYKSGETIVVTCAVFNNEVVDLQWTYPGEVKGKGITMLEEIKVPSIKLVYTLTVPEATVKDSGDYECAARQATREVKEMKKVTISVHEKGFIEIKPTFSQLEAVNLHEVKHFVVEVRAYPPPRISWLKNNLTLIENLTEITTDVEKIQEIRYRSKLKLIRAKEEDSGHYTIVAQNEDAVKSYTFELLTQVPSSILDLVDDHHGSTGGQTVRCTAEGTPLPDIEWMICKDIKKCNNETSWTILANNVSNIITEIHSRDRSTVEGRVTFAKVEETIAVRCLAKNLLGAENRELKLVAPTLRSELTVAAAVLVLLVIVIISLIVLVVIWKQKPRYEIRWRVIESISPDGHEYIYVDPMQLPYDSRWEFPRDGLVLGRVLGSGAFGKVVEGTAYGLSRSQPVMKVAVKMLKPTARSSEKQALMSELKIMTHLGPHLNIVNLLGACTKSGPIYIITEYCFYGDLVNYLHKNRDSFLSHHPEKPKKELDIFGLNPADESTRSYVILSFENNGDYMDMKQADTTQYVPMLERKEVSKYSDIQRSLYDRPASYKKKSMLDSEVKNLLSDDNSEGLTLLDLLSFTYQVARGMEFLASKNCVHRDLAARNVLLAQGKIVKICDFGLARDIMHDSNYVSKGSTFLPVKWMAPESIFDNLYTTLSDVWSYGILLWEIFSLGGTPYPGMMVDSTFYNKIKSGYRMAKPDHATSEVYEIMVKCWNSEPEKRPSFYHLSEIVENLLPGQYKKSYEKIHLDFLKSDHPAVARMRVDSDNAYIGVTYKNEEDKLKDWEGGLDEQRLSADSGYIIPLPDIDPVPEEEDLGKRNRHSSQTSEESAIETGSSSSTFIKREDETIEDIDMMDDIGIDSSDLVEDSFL
Protein cereblon/Platelet-derived growth factor receptor alpha, sequence (Q96SW2 whole entry): as the sequence (Q96SW2 whole entry) above

In the case of `Cc1ccc(C(=O)Nc2ccc(CN3CCN(C(=O)CCCc4cn(CCOCCOCCOCCNc5cccc6c5C(=O)N(C5CCC(=O)NC5=O)C6=O)nn4)CC3)c(C(F)(F)F)c2)cc1C#Cc1cnc2cccnn12` (configuration not stated), the “Ratio IC50” value was determined as 13 in series [1] and 257 in series [8]. The outcome in series [2], in series [4], in [6] and in [13] was Active. Moreover, the IC50 is 441 nM in series [3]; 13.1 nM in series [7]; 7.5 nM in the series with K562; above 300 nM in series [9]; 2580 nM in [17]; 44.2 nM in [18]. Further, in series [5], the DC50 amounted to 20 nM. For the same molecule, the EC50 is above 10000 nM in the series with H9c2, 28.5 nM in series [12], above 10000 nM in the series on HUVEC [14] and above 10000 nM in the series with BaF3. For the same molecule, the Activity result is recorded as “Non-Toxic” in the series with HUVEC [10], “Not Active” in series [15], “Not Active” in series [16] and “Not Active” in [19]. In addition, in series [11], the CI is below 1.

(Values after ChEMBL document CHEMBL4616725, “Global PROTAC Toolbox for Degrading BCR-ABL Overcomes Drug-Resistant Mutants and Adverse Effects” (J Med Chem, 2020).)
